Measurements reported in patent publication US9084818B2, “Topical dermal delivery compositions using self assembling nanoparticles with cetylated components” (CYMBIOTICS, INC., priority 2013, dated 2015).

Columns and labels:
[1] = Minimum HLB needed for cetosome formation; type: physicochemical; settings: surfactant HLB requirement to solubilize and stabilize within the cetosome
Protocol: Core components are also chosen with melting points between 40° to 75° C. This allows for thermal dissociation into the oil phase and strong affinity re-association as the temperature is reduced.

[2] = Pre-clinical pharmacokinetic feasibility study of oxybutynin cream on shaved rabbit backs; type: in vivo, rabbits
Protocol: Two levels of oxybutynin hydrochloride for use in the study were incorporated into the composition matrix: 5 mg/gm and 0.5 mg/ml. Three rabbits were chosen for each dosing. Animal backs were shaved were shaved 24 hrs prior to application. One gram was applied to the shaved area and rubbed in. This was covered by non-absorbent dressing. One milliliter of blood was collected from a marginal ear vein at baseline, 15 minutes, 1 hr, 6 hrs, 12 hrs and 24 hrs following dosing. Heparin was used as anticoagulant. Extracted samples were analyzed using an LC/MS-MS spectrometer (API 3000) with diazepam as an internal standard. Mobile phase was a 50:40:10 mixture (methanol:acetonitrile: 10 mM ammonium formate). The column used was a Phenomenex, Luna C18, 150×4.6 mm, 5 micron. Temperature for analysis was 30° C. with a flow rate of 1.0 ml/min with splitter with detection using ESI positive ion. Both oxybutynin and N-desethyl-oxybutynin were analyzed. N-desethyl-oxybutynin (DES) is a metabolite of oxybutynin considered to be associated with adverse secondary side effects.

[3] = rabbit, in vivo, topical or ocular, 5 mg
[4] = Cream, 0.5 mg/ml, one gram topical, rabbit plasma, mean

In the case of `CCCCCCCCCCCCCCCCO` [Cetyl Alcohol], the “MINIMUM HLB NEEDED FOR CETOSOME FORMATION” value [1] was 15.5.
In the case of `CCCCCCCCCCCCCCCCOC(=O)CCCCCCCCC` [Cetyl Decanoate], the “MINIMUM HLB NEEDED FOR CETOSOME FORMATION” value [1] was 10 and the melting point was 40 to 44 °C.
In the case of `CCCCCCCCCCCCCCCCOC(=O)CCCCCCCCCCC` [Cetyl Laurate], the “MINIMUM HLB NEEDED FOR CETOSOME FORMATION” value [1] was 10 and the melting point was 43 to 45 °C.
In the case of `CCCCCCCCCCCCCCCCOC(=O)CCCCCCCCCCCCC` [Cetyl Myristate], the “MINIMUM HLB NEEDED FOR CETOSOME FORMATION” value [1] was 10 and the melting point was 45 to 48 °C.
In the case of `CCCCCCCCCCCCCCCCOC(=O)CCCCCCC` [Cetyl Octanoate], the “MINIMUM HLB NEEDED FOR CETOSOME FORMATION” value [1] was 10 and the melting point was 52 to 60 °C.
In the case of `CCCCCCCC/C=C\CCCCCCCC(=O)OCCCCCCCCCCCCCCCC` [Cetyl Oleate], the “MINIMUM HLB NEEDED FOR CETOSOME FORMATION” value [1] was 10 and the melting point was 58 to 60 °C.
In the case of `CCCCCCCCCCCCCCCCOC(=O)CCCCCCCCCCCCCCC` [Cetyl Palmitate], the “MINIMUM HLB NEEDED FOR CETOSOME FORMATION” value [1] was 10.
In the case of `CCCCCC/C=C\CCCCCCCC(=O)OCCCCCCCCCCCCCCCC` [Cetyl Palmitoleate], the “MINIMUM HLB NEEDED FOR CETOSOME FORMATION” value [1] was 10 and the melting point was 45 to 52 °C.
For `CCCCCCCCCCCCCCCCCC(=O)OCCCCCCCCCCCCCCCC` [Cetyl Stearate], the “MINIMUM HLB NEEDED FOR CETOSOME FORMATION” value [1] was 10 and the melting point was 62 to 70 °C.
For `CCNCC#CCOC(=O)C(O)(c1ccccc1)C1CCCCC1` (stereo not shown) [DES, N-desethyl-oxybutynin], the “detection of the metabolite in plasma during the 24 hour period” value ([2]; either level of dose application) was “not detectable” and the Tmax ([2]; rabbit, in vivo, topical or ocular) was less than 0.5 h.
`CCN(CC)CC#CCOC(=O)C(O)(c1ccccc1)C1CCCCC1` (stereo not shown) [Oxybutynin, oxybutynin] gave an AUC(0-t) [2, 3] of 22 ng·h/mL, a Cmax [2, 3] of 9.33 ng/mL and a Tmax [2, 3] of 6 h.
With Cetyl Isomyristate the “MINIMUM HLB NEEDED FOR CETOSOME FORMATION” value [1] was 10.
For oxybutynin, the “AUC 0-24 hr” value [2, 4] was 2.512 ng·h/mL, the Cmax [2, 4] was 0.836 ng/mL and the Tmax [2, 4] was 12 h.
